One experiment concerns the target JH2 domain of human Tyk2 (Homo sapiens (Human), UniProt P29597). The experiment can be described thus: JH2 Biochemical Assay (TR-FRET probe displacement). The class given is binding.
Another experiment has as its target Tyk2 (Homo sapiens (Human), UniProt P29597). The experiment can be described thus: pSTAT4 Cell Assay (MSD, NK92 cells). The class given is cell-based.
Setting [1] is: JH2 domain of human Tyk2, TR-FRET probe displacement.
The mark [2] stands for this setting: TR-FRET probe displacement, JH2 domain.
The mark [3] stands for this setting: TR-FRET probe displacement, JH2 domain of human Tyk2.

pIC50: −log10 of the molar value. Structures can show the parent of a compound that is named as a salt. Where two headings read alike, the source gives them in different places.

Sequence of JH2 domain of human Tyk2 (P29597 575-876): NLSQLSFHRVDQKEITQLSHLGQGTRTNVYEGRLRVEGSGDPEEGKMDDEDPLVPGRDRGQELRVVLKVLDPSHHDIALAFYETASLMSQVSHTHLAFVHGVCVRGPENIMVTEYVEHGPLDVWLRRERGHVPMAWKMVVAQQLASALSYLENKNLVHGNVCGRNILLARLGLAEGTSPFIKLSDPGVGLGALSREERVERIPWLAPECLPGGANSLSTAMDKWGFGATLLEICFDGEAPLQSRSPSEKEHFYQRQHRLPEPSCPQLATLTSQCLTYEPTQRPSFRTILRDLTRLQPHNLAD
Sequence of Tyk2 (P29597 whole entry, the tested form may be a part): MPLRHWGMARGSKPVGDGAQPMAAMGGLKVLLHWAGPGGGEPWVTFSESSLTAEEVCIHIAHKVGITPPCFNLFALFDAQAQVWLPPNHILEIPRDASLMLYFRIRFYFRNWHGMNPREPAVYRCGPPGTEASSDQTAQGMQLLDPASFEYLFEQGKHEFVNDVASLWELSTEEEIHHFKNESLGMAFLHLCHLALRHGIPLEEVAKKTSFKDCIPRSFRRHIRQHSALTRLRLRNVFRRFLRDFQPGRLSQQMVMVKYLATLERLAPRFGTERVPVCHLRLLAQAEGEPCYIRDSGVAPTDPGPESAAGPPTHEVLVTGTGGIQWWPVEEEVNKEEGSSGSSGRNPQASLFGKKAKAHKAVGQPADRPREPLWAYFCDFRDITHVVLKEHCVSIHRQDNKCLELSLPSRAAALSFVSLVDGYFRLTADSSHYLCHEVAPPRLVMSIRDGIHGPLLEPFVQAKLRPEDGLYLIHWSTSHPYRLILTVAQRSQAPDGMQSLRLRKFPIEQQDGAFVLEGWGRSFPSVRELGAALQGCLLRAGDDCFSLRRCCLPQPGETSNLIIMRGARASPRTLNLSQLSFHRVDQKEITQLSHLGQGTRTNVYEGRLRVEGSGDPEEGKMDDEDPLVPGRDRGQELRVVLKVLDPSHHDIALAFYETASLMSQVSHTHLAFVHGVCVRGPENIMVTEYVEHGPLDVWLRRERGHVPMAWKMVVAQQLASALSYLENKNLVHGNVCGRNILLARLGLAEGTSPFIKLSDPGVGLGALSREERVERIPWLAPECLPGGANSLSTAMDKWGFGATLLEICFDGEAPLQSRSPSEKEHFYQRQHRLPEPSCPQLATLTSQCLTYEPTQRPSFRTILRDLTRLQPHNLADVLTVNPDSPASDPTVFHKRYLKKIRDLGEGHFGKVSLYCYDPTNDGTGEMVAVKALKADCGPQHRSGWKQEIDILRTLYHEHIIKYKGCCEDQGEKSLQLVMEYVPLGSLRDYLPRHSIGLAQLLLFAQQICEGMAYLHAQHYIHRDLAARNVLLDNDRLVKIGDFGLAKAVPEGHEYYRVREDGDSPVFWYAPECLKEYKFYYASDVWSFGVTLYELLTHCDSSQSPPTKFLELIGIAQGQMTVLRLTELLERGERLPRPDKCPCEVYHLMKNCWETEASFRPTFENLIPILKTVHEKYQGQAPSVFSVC

For the molecule `CC(=O)Nc1cc(Nc2cc(C)nc(C(C)(F)F)n2)c(-c2ncc(CN(C)C)s2)cn1` [Example 737, N-(4-((2-(1,1-difluoroethyl)-6-methylpyrimidin-4-yl)amino)-5-(5-((dimethylamino)methyl)thiazol-2-yl)pyridin-2-yl)acetamide], the negative logarithm of the IC50 (pIC50) on JH2 domain of human Tyk2 (setting [1]) and on Tyk2 (MSD) was at least 8.00 throughout.

For the molecule `COCCOc1cncc(-c2cnc(NC(C)=O)cc2Nc2ccnc(C(C)(F)F)n2)n1` [Example 691, N-(4-((2-(1,1-difluoroethyl)pyrimidin-4-yl)amino)-5-(6-(2-methoxyethoxy)pyrazin-2-yl)pyridin-2-yl)acetamide], the pIC50 (usually −log10 of the IC50, conventionally taken in molar units) at JH2 domain of human Tyk2 (setting [1]) is 7.00 to 8.00; against Tyk2 (MSD) it was 6.00 to 7.00.

`CC(=O)Nc1cc(Nc2cc(C)nc(C(C)(F)F)n2)c(OCc2ccncc2)cn1` [Example 473, N-(4-((2-(1,1-difluoroethyl)-6-methylpyrimidin-4-yl)amino)-5-((pyridin-4-yl)methoxy)pyridin-2-yl)acetamide]: the pIC50 at JH2 domain of human Tyk2 (setting [1]) is at least 8.00; against Tyk2 (MSD), 7.00 to 8.00.

For `CC(=O)Nc1cc(Nc2cc(C)nc(C(C)(F)F)n2)c(-c2ccn3ncnc3n2)cn1` [Example 536, N-(5-([1,2,4]triazolo[1,5-a]pyrimidin-5-yl)-4-((2-(1,1-difluoroethyl)-6-methylpyrimidin-4-yl)amino)pyridin-2-yl)acetamide], the pIC50 on JH2 domain of human Tyk2 (setting [1]) and against Tyk2 (MSD) was at least 8.00 throughout.

As for `COCc1nsc(-c2cnc(NC(C)=O)cc2Nc2cc(C)nc(C(C)(F)F)n2)n1` [Example 762, N-(4-((2-(1,1-difluoroethyl)-6-methylpyrimidin-4-yl)amino)-5-(3-(methoxymethyl)-1,2,4-thiadiazol-5-yl)pyridin-2-yl)acetamide], the pIC50 on JH2 domain of human Tyk2 (setting [2]) and against Tyk2 was at least 8.00 throughout.

Consider `COc1cnc(Oc2cnc(NC(C)=O)cc2Nc2cc(C)nc(C(C)(F)F)n2)cn1` [Example 356, N-(4-((2-(1,1-difluoroethyl)-6-methylpyrimidin-4-yl)amino)-5-((5-methoxypyrazin-2-yl)oxy)pyridin-2-yl)acetamide], for which the pIC50 on JH2 domain of human Tyk2 (setting [3]) and against Tyk2 (MSD) was at most 6.00 throughout.

Regarding `CCc1cc(Nc2cc(NC(C)=O)ncc2-c2cnc(C#N)cn2)nc(C(C)(F)F)n1` [Example 864, N-(5-(5-cyanopyrazin-2-yl)-4-((2-(1,1-difluoroethyl)-6-ethylpyrimidin-4-yl)amino)pyridin-2-yl)acetamide], the pIC50 at JH2 domain of human Tyk2 (setting [2]) is at least 8.00; against Tyk2, 7.00 to 8.00.

For the molecule `CC(=O)Nc1cc(Nc2cc(C)nc(C(C)(C)F)n2)c(-c2ncc(F)cn2)cn1` [Example 723, N-(4-((2-(2-fluoropropan-2-yl)-6-methylpyrimidin-4-yl)amino)-5-(5-fluoropyrimidin-2-yl)pyridin-2-yl)acetamide], the pIC50 is at least 8.00 at JH2 domain of human Tyk2 (setting [1]) and 7.00 to 8.00 against Tyk2 (MSD).

For `CCc1cc(Nc2cc(NC(C)=O)ncc2-c2ccc(=O)n(C)n2)nc(C(C)(F)F)n1` [Example 865, N-(4-((2-(1,1-difluoroethyl)-6-ethylpyrimidin-4-yl)amino)-5-(1-methyl-6-oxo-1,6-dihydropyridazin-3-yl)pyridin-2-yl)acetamide], the pIC50 on JH2 domain of human Tyk2 (setting [2]) was at least 8.00; on Tyk2, 7.00 to 8.00.

For the molecule `CC(=O)Nc1cc(Nc2cc(C)nc(C(C)(F)F)n2)c(-c2csc(CN(C)C)n2)cn1` [Example 786, N-(4-((2-(1,1-difluoroethyl)-6-methylpyrimidin-4-yl)amino)-5-(2-((dimethylamino)methyl)thiazol-4-yl)pyridin-2-yl)acetamide], the pIC50 on JH2 domain of human Tyk2 (setting [2]) and on Tyk2 was at least 8.00 each time.

As to `CC(=O)Nc1cc(Nc2cc(C)nc(C(C)(F)F)n2)c(OCc2cnn(C)c2)cn1` [Example 508, N-(4-((2-(1,1-difluoroethyl)-6-methylpyrimidin-4-yl)amino)-5-((1-methyl-1H-pyrazol-4-yl)methoxy)pyridin-2-yl)acetamide], the pIC50 is at least 8.00 at JH2 domain of human Tyk2 (setting [1]) and 7.00 to 8.00 at Tyk2 (MSD).

As for `COc1cnc(NC(C)=O)cc1Nc1cc(C)nc(C2CCOC2)n1` (centres unmarked) [Example 451, N-(5-methoxy-4-((6-methyl-2-(tetrahydrofuran-3-yl)pyrimidin-4-yl)amino)pyridin-2-yl)acetamide], the pIC50 is 7.00 to 8.00 at JH2 domain of human Tyk2 (setting [1]) and at most 6.00 against Tyk2 (MSD).

`CCOc1cnc(NC(C)=O)cc1Nc1cc(OC2CC(F)C2)nc(C(C)(F)F)n1` (centres unmarked) [Example 457, N-(4-((2-(1,1-difluoroethyl)-6-(3-fluorocyclobutoxy)pyrimidin-4-yl)amino)-5-ethoxypyridin-2-yl)acetamide trifluoroacetate]: the pIC50 at JH2 domain of human Tyk2 (setting [1]) was at least 8.00; on Tyk2 (MSD), 7.00 to 8.00.

In the case of `CC(=O)Nc1cc(Nc2cc(C)nc(C(C)(F)F)n2)c(-c2ccc3c(n2)OCC(C)(C)O3)cn1` [Example 813, N-(4-((2-(1,1-difluoroethyl)-6-methylpyrimidin-4-yl)amino)-5-(2,2-dimethyl-2,3-dihydro-[1,4]dioxino[2,3-b]pyridin-6-yl)pyridin-2-yl)acetamide], the pIC50 on JH2 domain of human Tyk2 (setting [2]) and at Tyk2 was at least 8.00 in each case.

With `COc1cnn(-c2cnc(NC(C)=O)cc2Nc2ccnc(C(C)(F)F)n2)c1` [Example 730, N-(4-((2-(1,1-difluoroethyl)pyrimidin-4-yl)amino)-5-(4-methoxy-1H-pyrazol-1-yl)pyridin-2-yl)acetamide], the pIC50 was 7.00 to 8.00 on JH2 domain of human Tyk2 (setting [1]) and 6.00 to 7.00 against Tyk2 (MSD).

With `COCC(C)COc1cnc(NC(C)=O)cc1Nc1cc(C)nc(C(C)(F)F)n1` (centres unmarked) [Example 440, N-(4-((2-(1,1-difluoroethyl)-6-methylpyrimidin-4-yl)amino)-5-(3-methoxy-2-methylpropoxy)pyridin-2-yl)acetamide], the pIC50 at JH2 domain of human Tyk2 (setting [1]) was at least 8.00; on Tyk2 (MSD), 7.00 to 8.00.

Turning to `CC(=O)Nc1cc(Nc2ccnc(C(C)(F)F)n2)c(-c2ccc(N3CCCC3)nn2)cn1` [Example 845, N-(4-((2-(1,1-difluoroethyl)pyrimidin-4-yl)amino)-5-(6-(pyrrolidin-1-yl)pyridazin-3-yl)pyridin-2-yl)acetamide], the pIC50 on JH2 domain of human Tyk2 (setting [2]) and on Tyk2 was at least 8.00 each time.

With `CCN1CCn2nc(-c3cnc(NC(C)=O)cc3Nc3cc(C)nc(C(C)(F)F)n3)cc2C1` [Example 283, N-(4-((2-(1,1-difluoroethyl)-6-methylpyrimidin-4-yl)amino)-5-(5-ethyl-4,5,6,7-tetrahydropyrazolo[1,5-a]pyrazin-2-yl)pyridin-2-yl)acetamide], the pIC50 at JH2 domain of human Tyk2 (setting [3]) and against Tyk2 (MSD) was at least 8.00 each time.

For `CC(=O)Nc1cc(Nc2cc(C)nc(C(C)(F)F)n2)c(Oc2ccnc(C(F)(F)F)n2)cn1` [Example 359, N-(4-((2-(1,1-difluoroethyl)-6-methylpyrimidin-4-yl)amino)-5-((2-(trifluoromethyl)pyrimidin-4-yl)oxy)pyridin-2-yl)acetamide], the pIC50 on JH2 domain of human Tyk2 (setting [3]) and at Tyk2 (MSD) was at most 6.00 in each case.

On to `CC(=O)Nc1cc(Nc2cc(C)nc(C(C)(F)F)n2)c(OCC2(F)CCCOC2)cn1` (centres unmarked) [Example 417, N-(4-((2-(1,1-difluoroethyl)-6-methylpyrimidin-4-yl)amino)-5-((3-fluorotetrahydro-2H-pyran-3-yl)methoxy)pyridin-2-yl)acetamide], for which the pIC50 on JH2 domain of human Tyk2 (setting [1]) and on Tyk2 (MSD) was at least 8.00 throughout.

Regarding `COc1cncc(-c2cnc(NC(C)=O)cc2Nc2ccnc(C(C)(F)F)n2)n1` [Example 273, N-(4-((2-(1,1-difluoroethyl)pyrimidin-4-yl)amino)-5-(6-methoxypyrazin-2-yl)pyridin-2-yl)acetamide], the pIC50 at JH2 domain of human Tyk2 (setting [3]) was 7.00 to 8.00; on Tyk2 (MSD), 6.00 to 7.00.

On to `CC(=O)Nc1cc(Nc2ccnc(C(C)(F)F)n2)c(-c2ncccc2F)cn1` [Example 698, N-(4′-((2-(1,1-difluoroethyl)pyrimidin-4-yl)amino)-3-fluorO[2,3′-bipyridin]-6′-yl)acetamide], for which the pIC50 was 7.00 to 8.00 on JH2 domain of human Tyk2 (setting [1]) and 6.00 to 7.00 against Tyk2 (MSD).

For `COc1cnc(NC(C)=O)cc1Nc1cc(C)nc(C23COC(C)(C2)C3)n1` [Example 449, N-(5-methoxy-4-((6-methyl-2-(1-methyl-2-oxabicyclo[2.1.1]hexan-4-yl)pyrimidin-4-yl)amino)pyridin-2-yl)acetamide], the pIC50 is 6.00 to 7.00 at JH2 domain of human Tyk2 (setting [1]) and at most 6.00 at Tyk2 (MSD).

On to `COCc1ccc(-c2cnc(NC(C)=O)cc2Nc2cc(COC)nc(C3CCOC3)n2)nc1` (centres unmarked) [Example 570, N-(5-(methoxymethyl)-4′-((6-(methoxymethyl)-2-(tetrahydrofuran-3-yl)pyrimidin-4-yl)amino)-[2,3′-bipyridin]-6′-yl)acetamide], for which the pIC50 was at least 8.00 on JH2 domain of human Tyk2 (setting [1]) and 7.00 to 8.00 against Tyk2 (MSD).

For the molecule `CC(=O)Nc1cc(Nc2cc(C)nc(C(C)(F)F)n2)c(OC[C@@H]2CCC(=O)N2)cn1` [Example 500, (S)-N-(4-((2-(1,1-difluoroethyl)-6-methylpyrimidin-4-yl)amino)-5-((5-oxopyrrolidin-2-yl)methoxy)pyridin-2-yl)acetamide], the negative-log IC50 (pIC50) is at least 8.00 on JH2 domain of human Tyk2 (setting [1]) and 6.00 to 7.00 at Tyk2 (MSD).

For `CC(=O)Nc1cc(Nc2ccnc(C(C)(F)F)n2)c(-c2ccc(CN3C[C@H]4C[C@@H]3CO4)cn2)cn1` (racemic) [Example 884, rac-N-(5-(((1R,4R)-2-oxa-5-azabicyclo[2.2.1]heptan-5-yl)methyl)-4′-((2-(1,1-difluoroethyl)pyrimidin-4-yl)amino)-[2,3′-bipyridin]-6′-yl)acetamide], the pIC50 at JH2 domain of human Tyk2 (setting [2]) and at Tyk2 was at least 8.00 in each case.

As to `CC(=O)Nc1cc(Nc2cc(C)nc(C(C)(F)F)n2)c(-c2ccn3nccc3n2)cn1` [Example 540, N-(4-((2-(1,1-difluoroethyl)-6-methylpyrimidin-4-yl)amino)-5-(pyrazolo[1,5-a]pyrimidin-5-yl)pyridin-2-yl)acetamide], the pIC50 at JH2 domain of human Tyk2 (setting [1]) and on Tyk2 (MSD) was at least 8.00 in each case.

For the molecule `CCc1cc(Nc2cc(NC(C)=O)ncc2-c2cnc(N(C)C)cn2)nc(C(C)(F)F)n1` [Example 856, N-(4-((2-(1,1-difluoroethyl)-6-ethylpyrimidin-4-yl)amino)-5-(5-(dimethylamino)pyrazin-2-yl)pyridin-2-yl)acetamide], the pIC50 is at least 8.00 at JH2 domain of human Tyk2 (setting [2]) and 7.00 to 8.00 against Tyk2.

The record behind these values is patent US20260028365A1 (BIOGEN MA INC., priority 2022, published 2026).
